Experiments:
Format in all cases: in vivo
blood brain barrier [1] = assay: Evan's blue leakage into brain tissue following injury; conditions: dose-dependent, FIG. 1
Source text: We chose to use the compound N-acetyl-L-tryptophan (NAT).

[2] = tested on: IL-1β, IL-6 and TNFα mRNA; assay: RT-PCR of inflammatory cytokine mRNA in brain tissue after hypoxia and hypotension; conditions: rats, 10^−5 mol/kg intravenous after hypoxia and hypotension, 6 hours after injury, normalised to rpL32
Procedure: In order to induce the inflammatory response associated with reperfusion, anaesthetised rats were subject to 15 minutes of hypoxia (PAO2 30-40 mmHg) and hypotension (MABP 40 mmHg), before blood oxygen level and blood pressure were restored to normal levels. In order to examine the effects of a substance P antagonist on the inflammatory response, N-acetyl-L-tryptophan was administered intravenously at a dose of 10^−5 mol/kg after hypoxia and hypotension. The expression of mRNA for the inflammatory cytokines IL-1β, IL-6 and TNFα in brain tissue was determined by reverse transcription followed by a polymerase chain reaction (RT-PCR). mRNA levels were normalised with respect to expression of rpL32. Brain tissue samples were collected at 6 hours after injury. Levels of expression of mRNA for the inflammatory cytokines were compared between non-ischaemic animals (control), ischaemic animals administered drug vehicle alone (ischaemia), and ischaemic animals administered a substance P receptor antagonist (NK1). mRNA expression was determined for IL-1β (FIG. 5a), IL-6 (FIG. 5b) and TNFα (FIG. 5c).

IL-6 = assay: Serum IL-6 by ELISA after hypoxia and hypotension; conditions: rats; 10^−5 mol/kg intravenous after hypoxia and hypotension; blood at 6 hours after the insult; FIG. 6
Procedure: In order to induce the inflammatory response associated with reperfusion, anaesthetised rats were subject to 15 minutes of hypoxia (PAO2 30-40 mmHg) and hypotension (MABP 40 mmHg), before blood oxygen level and blood pressure were restored to normal levels. In addition, serum interleukin 6 levels were also determined. Blood samples were collected at 6 hours after the insult. Changes in serum IL-6 levels were quantified using an enzyme-linked immunosorbent assay (ELISA). Serum levels of IL-6 were compared between animals that were not subject to ischaemia (control), animals subject to ischaemia followed by administration of drug vehicle alone (ischaemia), and animals subject to ischaemia followed by administration of a substance P receptor antagonist (NK1) (FIG. 6).

blood brain barrier [3] = assay: Blood brain barrier permeability induced by injection of tPA in naïve (uninjured) animal; conditions: FIG. 2
[4] = tested on: rats subject to ischaemia/reperfusion injury; assay: Oedema after reversible stroke (intraluminal thread model of middle cerebral artery occlusion) and reperfusion; conditions: 2 h occlusion, 10^−5 mol/kg intravenous 2 h after reperfusion, FIG. 3
Procedure: To this end, anaesthetised rats were subject to 2 hours reversible stroke using the intraluminal thread model of middle cerebral artery occlusion. At 2 hours, reperfusion was initiated by withdrawing the thread and following a further 2 hours, N-acetyl-L-tryptophan (10^−5 mol/kg) was administered by intravenous injection. There was a significant increase in oedema at 24 h following ischaemia/reperfusion injury.

[5] = tested on: rats subject to ischaemia/reperfusion injury; assay: Rotarod test of motor function after reversible stroke and reperfusion; conditions: 2 h occlusion, over ensuing 7 days, FIG. 4
Procedure: Anaesthetised rats were subject to 2 hours reversible stroke using the intraluminal thread model of middle cerebral artery occlusion. At 2 hours, reperfusion was initiated by withdrawing the thread and following a further 2 hours, N-acetyl-L-tryptophan (10^-5 mol/kg) or […],060 (1 mg/kg) was administered by intravenous injection.

CC(=O)N[C@@H](Cc1c[nH]c2ccccc12)C(=O)O [N-acetyl-L-tryptophan]
leakage of Evan's blue dye into the brain tissue (blood brain barrier closure) (blood brain barrier [1]): reduced leakage of Evan's blue dye into the brain tissue
expression of IL-1β mRNA in brain tissue with respect to non-ischaemic animals ([2]; FIG. 5a): no significant differences
expression of IL-6 mRNA in brain tissue with respect to non-ischaemic animals ([2]; FIG. 5b): no significant differences
expression of TNFα mRNA in brain tissue with respect to non-ischaemic animals ([2]; FIG. 5c): no significant differences
increase in serum IL-6 levels (IL-6): this response was not observed
permeability of the blood brain barrier induced by tPA (blood brain barrier [3]; NAT 10^−5 mol/kg, tPA (Actilyse) injected to naïve (uninjured) animal): prevented the increased permeability of the blood brain barrier
oedema at 24 h following ischaemia/reperfusion injury [4]: significantly attenuated
functional outcome, rotarod test of motor function ([5]; 10^−5 mol/kg intravenous 2 h after reperfusion): profound improvement in functional outcome

tPA: tissue plasminogen activator, a thrombolytic agent
permeability of the blood brain barrier after tPA alone (blood brain barrier [3]; tPA (Actilyse) alone to naïve (uninjured) animal): increased permeability of the blood brain barrier

FC(F)(F)c1cc(CO[C@H]2CCCN[C@H]2c2ccccc2)cc(C(F)(F)F)c1 [L733,060]
functional outcome, rotarod test of motor function ([5]; 1 mg/kg intravenous 2 h after reperfusion): improved functional outcome
